{
  "source": "PubChem BioAssay AID1963825",
  "about": "(Molecular Pharmacology Branch, DTP, NCI, 2024);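 further: luminescence signal used as a surrogate for viable cells; spheroids exposed to drugs for seven days before readout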",
  "assay": "Anticancer human tumor 997537-175-T-J1-PDC patient-derived colon adenocarcinoma cell line growth inhibition [POLQ]",
  "settings": "997537-175-T-J1-PDC complex spheroid viability, combination with POLQ inhibitors; for IC50: curve of first compound; for viability, T/C: stronger effect = lower value",
  "procedure,_shortened": "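PDC + HUVEC + MSC complex spheroids; POLQ inhibitors ± partner drugs; top conc. at/near clinical Cmax, else 10 microM (SN-38 1 microM), half-log dilutions; 37 degrees C, 5% CO2.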",
  "data": [
    {"smiles": "CC[C@@]1(O)C(=O)OCc2c1cc1n(c2=O)Cc2cc3c(CN(C)C)c(O)ccc3nc2-1", "note": "+ Nc1ccc(C#CCN(C(=O)Cc2ncc(C(F)(F)F)cc2C(F)(F)F)c2ccc(F)cc2)nn1", "values": [
      {"measurement": "IC50", "setting": "second compound 0.0316 µM", "value": "> 100", "unit": "nM"},
      {"measurement": "IC50", "setting": "second compound 0.1 µM", "value": "> 100", "unit": "nM"},
      {"measurement": "IC50", "setting": "second compound 0.316 µM", "value": 90.8, "unit": "nM"},
      {"measurement": "IC50", "setting": "second compound 1 µM", "value": "> 100", "unit": "nM"},
      {"measurement": "IC50", "setting": "second compound 3.16 µM", "value": "> 100", "unit": "nM"},
      {"measurement": "IC50", "setting": "second compound 10 µM", "value": "> 100", "unit": "nM"},
      {"measurement": "viability, T/C", "setting": "second compound 0.0316 µM, first compound 0.000316 µM", "value": 104, "unit": "%"},
      {"measurement": "viability, T/C", "setting": "second compound 0.0316 µM, first compound 0.001 µM", "value": 94.6, "unit": "%"},
      {"measurement": "viability, T/C", "setting": "second compound 0.0316 µM, first compound 0.00316 µM", "value": 104, "unit": "%"},
      {"measurement": "viability, T/C", "setting": "second compound 0.0316 µM, first compound 0.01 µM", "value": 111, "unit": "%"},
      {"measurement": "viability, T/C", "setting": "second compound 0.0316 µM, first compound 0.0316 µM", "value": 94.7, "unit": "%"},
      {"measurement": "viability, T/C", "setting": "second compound 0.0316 µM, first compound 0.1 µM", "value": 66.3, "unit": "%"},
      {"measurement": "viability, T/C", "setting": "second compound 0.1 µM, first compound 0.000316 µM", "value": 101, "unit": "%"},
      {"measurement": "viability, T/C", "setting": "second compound 0.1 µM, first compound 0.001 µM", "value": 91, "unit": "%"},
      {"measurement": "viability, T/C", "setting": "second compound 0.1 µM, first compound 0.00316 µM", "value": 101, "unit": "%"},
      {"measurement": "viability, T/C", "setting": "second compound 0.1 µM, first compound 0.01 µM", "value": 103, "unit": "%"},
      {"measurement": "viability, T/C", "setting": "second compound 0.1 µM, first compound 0.0316 µM", "value": 83.2, "unit": "%"},
      {"measurement": "viability, T/C", "setting": "second compound 0.1 µM, first compound 0.1 µM", "value": 58.3, "unit": "%"},
      {"measurement": "viability, T/C", "setting": "second compound 0.316 µM, first compound 0.000316 µM", "value": 104, "unit": "%"},
      {"measurement": "viability, T/C", "setting": "second compound 0.316 µM, first compound 0.001 µM", "value": 90.9, "unit": "%"},
      {"measurement": "viability, T/C", "setting": "second compound 0.316 µM, first compound 0.00316 µM", "value": 107, "unit": "%"},
      {"measurement": "viability, T/C", "setting": "second compound 0.316 µM, first compound 0.01 µM", "value": 101, "unit": "%"},
      {"measurement": "viability, T/C", "setting": "second compound 0.316 µM, first compound 0.0316 µM", "value": 77.3, "unit": "%"},
      {"measurement": "viability, T/C", "setting": "second compound 0.316 µM, first compound 0.1 µM", "value": 47.5, "unit": "%"},
      {"measurement": "viability, T/C", "setting": "second compound 1 µM, first compound 0.000316 µM", "value": 93.3, "unit": "%"},
      {"measurement": "viability, T/C", "setting": "second compound 1 µM, first compound 0.001 µM", "value": 89.8, "unit": "%"},
      {"measurement": "viability, T/C", "setting": "second compound 1 µM, first compound 0.00316 µM", "value": 102, "unit": "%"},
      {"measurement": "viability, T/C", "setting": "second compound 1 µM, first compound 0.01 µM", "value": 101, "unit": "%"},
      {"measurement": "viability, T/C", "setting": "second compound 1 µM, first compound 0.0316 µM", "value": 83.9, "unit": "%"},
      {"measurement": "viability, T/C", "setting": "second compound 1 µM, first compound 0.1 µM", "value": 57.2, "unit": "%"},
      {"measurement": "viability, T/C", "setting": "second compound 3.16 µM, first compound 0.000316 µM", "value": 95.7, "unit": "%"},
      {"measurement": "viability, T/C", "setting": "second compound 3.16 µM, first compound 0.001 µM", "value": 98.2, "unit": "%"},
      {"measurement": "viability, T/C", "setting": "second compound 3.16 µM, first compound 0.00316 µM", "value": 107, "unit": "%"},
      {"measurement": "viability, T/C", "setting": "second compound 3.16 µM, first compound 0.01 µM", "value": 100, "unit": "%"},
      {"measurement": "viability, T/C", "setting": "second compound 3.16 µM, first compound 0.0316 µM", "value": 79, "unit": "%"},
      {"measurement": "viability, T/C", "setting": "second compound 3.16 µM, first compound 0.1 µM", "value": 60.6, "unit": "%"},
      {"measurement": "viability, T/C", "setting": "second compound 10 µM, first compound 0.000316 µM", "value": 96.7, "unit": "%"},
      {"measurement": "viability, T/C", "setting": "second compound 10 µM, first compound 0.001 µM", "value": 99.4, "unit": "%"},
      {"measurement": "viability, T/C", "setting": "second compound 10 µM, first compound 0.00316 µM", "value": 116, "unit": "%"},
      {"measurement": "viability, T/C", "setting": "second compound 10 µM, first compound 0.01 µM", "value": 107, "unit": "%"},
      {"measurement": "viability, T/C", "setting": "second compound 10 µM, first compound 0.0316 µM", "value": 81.3, "unit": "%"},
      {"measurement": "viability, T/C", "setting": "second compound 10 µM, first compound 0.1 µM", "value": 58.5, "unit": "%"}
    ]}
  ]
}
